The assay concerns the target WT cyclophilin (Homo sapiens, UniProt P62937). Nature of the assay: FRET equilibrium binding to wild-type cyclophilin.

Drawing on article PMC4760428 (Angewandte Chemie (International Ed. in English), 2016), this text covers Kd for one compound.

Peptide text beside a SMILES is read from it.

WT cyclophilin, sequence (P62937 whole entry): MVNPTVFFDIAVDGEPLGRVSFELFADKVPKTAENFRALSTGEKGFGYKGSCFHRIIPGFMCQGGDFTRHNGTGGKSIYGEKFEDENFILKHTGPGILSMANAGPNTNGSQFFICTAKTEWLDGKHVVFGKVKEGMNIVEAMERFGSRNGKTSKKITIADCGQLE

Broadly, the Kd is the constant that tells how readily two partners part at equilibrium. The low end stands for a tighter complex, the high end for a looser complex. Regarding `C[C@H](NS(=O)(=O)c1cccc2c(N(C)C)cccc12)C(=O)N[C@@H](C)C(=O)N1CCC[C@H]1C(=O)N[C@@H](Cc1ccccc1)C(=O)O` [WT peptide] (HELM PEPTIDE1{[CN(C)c1cccc2c(S(=O)(=O)[*:2])cccc12].A.A.P.F}$$$$V2.0), the dissociation constant Kd turned out to be 164 ± 32 µM.
